Test results published in US20260027116A1, “Methods of Treating Chronic Graft-Versus-Host Disease Following Allogeneic Hematopoietic Stem Cell Transplantation” (Kadmon Corporation, LLC, priority 2022, published 2026).

Tests used:
lung function = test: Example 1: percent predicted TLC change from baseline; assay type: in vivo, human; conditions: mean (SD)
Description: Change From Baseline in Percent Predicted Total Lung Capacity (TLC) at Each Specified Time Points. TLC is the volume of air in the lungs upon the maximum effort of inspiration. Baseline value was defined as valid and last non-missing value obtained within 28 days prior to participant receiving first study medication. EOT visit was performed within 3 days after the participant's last dose of study drug. […] Analysis was performed on mITT population. Here, ‘number analyzed’=participants with available data for each specified category. Here, ‘0’ in the number analyzed field signifies that none of the participants were available for the analysis at the specified time points.

[1] = Example 1: plasma pharmacokinetics (Cmax, Tmax, AUC0-6 hr) of belumosudil and metabolites; assay type: in vivo, human; conditions: for AUC0-6 hr, Geometric Mean (Geometric Coefficient of Variation): plasma
Description: Cmax was the maximum observed plasma concentration, obtained by a non-compartmental analysis. […] Timeframe: Cycles 1 and 2: pre-dose (0 hour), 1, 2, 3, 4, 5, and 6 hours post-dose on Day 1. […] Here, ‘number analyzed’=participants with available data for each specified category.
Tmax was defined as time to reach maximum observed plasma concentration, obtained by a non-compartmental analysis. […] Timeframe: Cycles 1 and 2: pre-dose (0 hour), 1, 2, 3, 4, 5, and 6 hours post-dose on Day 1. Analysis was performed on PK population. Here, ‘number analyzed’=participants with available data for each specified category.
AUC0-6 hr was defined as area under the plasma concentration versus time curve from time 0 to 6 hours post-dose, obtained by a non-compartmental analysis from the concentration-time data. […] Timeframe: Cycles 1 and 2: pre-dose (0 hour), 1, 2, 3, 4, 5, and 6 hours post-dose on Day 1. Analysis was performed on PK population. Here, ‘number analyzed’=participants with available data for each specified category.

[2] = pharmacokinetics in specific populations (population pharmacokinetics); set-up: species or system human; conditions: in vivo

Compound: CC(C)NC(=O)COc1cccc(-c2nc(Nc3ccc4[nH]ncc4c3)c3ccccc3n2)c1 [Belumosudil, 2-{3-[4-(1H-indazol-5-ylamino)-2-quinazolinyl]phenoxy}-N-(propan-2-yl) acetamide]
- Change From Baseline in Percent Predicted Total Lung Capacity (TLC) (lung function; Cohort 2: 200 mg BID, Cycle 19, Day 1): −7.7 (10.5) Percent Predicted TLC
- Change From Baseline in Percent Predicted Total Lung Capacity (TLC) (lung function; Cohort 2: 200 mg BID, Cycle 20, Day 1): −9.5 (16.3) Percent Predicted TLC
- Change From Baseline in Percent Predicted Total Lung Capacity (TLC) (lung function; Cohort 2: 200 mg BID, Cycle 21, Day 1): −18.0 (—) Percent Predicted TLC
- Change From Baseline in Percent Predicted Total Lung Capacity (TLC) (lung function; Cohort 2: 200 mg BID, Cycle 22, Day 1): −18.5 (6.4) Percent Predicted TLC
- Change From Baseline in Percent Predicted Total Lung Capacity (TLC) (lung function; Cohort 2: 200 mg BID, Cycle 23, Day 1): −21.0 (19.8) Percent Predicted TLC
- Change From Baseline in Percent Predicted Total Lung Capacity (TLC) (lung function; Cohort 2: 200 mg BID, Cycle 24, Day 1): −15.0 (—) Percent Predicted TLC
- Change From Baseline in Percent Predicted Total Lung Capacity (TLC) (lung function; Cohort 2: 200 mg BID, Cycle 25, Day 1): −19.5 (13.4) Percent Predicted TLC
- Change From Baseline in Percent Predicted Total Lung Capacity (TLC) (lung function; Cohort 2: 200 mg BID, Cycle 27, Day 1): −24.0 (12.7) Percent Predicted TLC
- Change From Baseline in Percent Predicted Total Lung Capacity (TLC) (lung function; Cohort 2: 200 mg BID, Cycle 29, Day 1): −27.5 (21.9) Percent Predicted TLC
- Change From Baseline in Percent Predicted Total Lung Capacity (TLC) (lung function; Cohort 2: 200 mg BID, Cycle 31, Day 1): −36.0 (—) Percent Predicted TLC
- Change From Baseline in Percent Predicted Total Lung Capacity (TLC) (lung function; Cohort 2: 200 mg BID, Cycle 33, Day 1): −39.0 (—) Percent Predicted TLC
- Change From Baseline in Percent Predicted Total Lung Capacity (TLC) (lung function; Cohort 2: 200 mg BID, Cycle 35, Day 1): −23.5 (16.3) Percent Predicted TLC
- Change From Baseline in Percent Predicted Total Lung Capacity (TLC) (lung function; Cohort 2: 200 mg BID, EOT): −2.4 (15.0) Percent Predicted TLC
- Change From Baseline in Percent Predicted Total Lung Capacity (TLC) (lung function; Cohort 3: 400 mg QD, Cycle 2, Day 1): −9.0 (13.4) Percent Predicted TLC
- Change From Baseline in Percent Predicted Total Lung Capacity (TLC) (lung function; Cohort 3: 400 mg QD, Cycle 3, Day 1): −0.6 (14.8) Percent Predicted TLC
- Change From Baseline in Percent Predicted Total Lung Capacity (TLC) (lung function; Cohort 3: 400 mg QD, Cycle 4, Day 1): 3.3 (14.0) Percent Predicted TLC
- Change From Baseline in Percent Predicted Total Lung Capacity (TLC) (lung function; Cohort 3: 400 mg QD, Cycle 5, Day 1): −1.7 (11.2) Percent Predicted TLC
- Change From Baseline in Percent Predicted Total Lung Capacity (TLC) (lung function; Cohort 3: 400 mg QD, Cycle 6, Day 1): −4.4 (11.6) Percent Predicted TLC
- Change From Baseline in Percent Predicted Total Lung Capacity (TLC) (lung function; Cohort 3: 400 mg QD, Cycle 7, Day 1): −2.6 (13.4) Percent Predicted TLC
- Change From Baseline in Percent Predicted Total Lung Capacity (TLC) (lung function; Cohort 3: 400 mg QD, Cycle 8, Day 1): −0.2 (12.9) Percent Predicted TLC
- Change From Baseline in Percent Predicted Total Lung Capacity (TLC) (lung function; Cohort 3: 400 mg QD, Cycle 9, Day 1): −0.9 (15.8) Percent Predicted TLC
- Change From Baseline in Percent Predicted Total Lung Capacity (TLC) (lung function; Cohort 3: 400 mg QD, Cycle 10, Day 1): 3.6 (14.7) Percent Predicted TLC
- Change From Baseline in Percent Predicted Total Lung Capacity (TLC) (lung function; Cohort 3: 400 mg QD, Cycle 11, Day 1): −3.0 (19.7) Percent Predicted TLC
- Change From Baseline in Percent Predicted Total Lung Capacity (TLC) (lung function; Cohort 3: 400 mg QD, Cycle 12, Day 1): −8.0 (14.2) Percent Predicted TLC
- Change From Baseline in Percent Predicted Total Lung Capacity (TLC) (lung function; Cohort 3: 400 mg QD, Cycle 13, Day 1): −3.3 (17.6) Percent Predicted TLC
- Change From Baseline in Percent Predicted Total Lung Capacity (TLC) (lung function; Cohort 3: 400 mg QD, Cycle 14, Day 1): −5.8 (16.5) Percent Predicted TLC
- Change From Baseline in Percent Predicted Total Lung Capacity (TLC) (lung function; Cohort 3: 400 mg QD, Cycle 15, Day 1): −7.0 (12.0) Percent Predicted TLC
- Change From Baseline in Percent Predicted Total Lung Capacity (TLC) (lung function; Cohort 3: 400 mg QD, Cycle 16, Day 1): −15.5 (9.5) Percent Predicted TLC
- Change From Baseline in Percent Predicted Total Lung Capacity (TLC) (lung function; Cohort 3: 400 mg QD, Cycle 17, Day 1): −18.1 (15.6) Percent Predicted TLC
- Change From Baseline in Percent Predicted Total Lung Capacity (TLC) (lung function; Cohort 3: 400 mg QD, Cycle 18, Day 1): 0.0 (13.9) Percent Predicted TLC
- Change From Baseline in Percent Predicted Total Lung Capacity (TLC) (lung function; Cohort 3: 400 mg QD, Cycle 19, Day 1): −7.0 (5.4) Percent Predicted TLC
- Change From Baseline in Percent Predicted Total Lung Capacity (TLC) (lung function; Cohort 3: 400 mg QD, Cycle 20, Day 1): −9.3 (15.4) Percent Predicted TLC
- Change From Baseline in Percent Predicted Total Lung Capacity (TLC) (lung function; Cohort 3: 400 mg QD, Cycle 21, Day 1): −14.4 (24.0) Percent Predicted TLC
- Change From Baseline in Percent Predicted Total Lung Capacity (TLC) (lung function; Cohort 3: 400 mg QD, Cycle 22, Day 1): −21.0 (14.1) Percent Predicted TLC
- Change From Baseline in Percent Predicted Total Lung Capacity (TLC) (lung function; Cohort 3: 400 mg QD, Cycle 23, Day 1): −2.8 (18.8) Percent Predicted TLC
- Change From Baseline in Percent Predicted Total Lung Capacity (TLC) (lung function; Cohort 3: 400 mg QD, Cycle 24, Day 1): −34.0 (—) Percent Predicted TLC
- Change From Baseline in Percent Predicted Total Lung Capacity (TLC) (lung function; Cohort 3: 400 mg QD, Cycle 25, Day 1): −6.3 (24.1) Percent Predicted TLC
- Change From Baseline in Percent Predicted Total Lung Capacity (TLC) (lung function; Cohort 3: 400 mg QD, Cycle 27, Day 1): −14.5 (24.7) Percent Predicted TLC
- Change From Baseline in Percent Predicted Total Lung Capacity (TLC) (lung function; Cohort 3: 400 mg QD, Cycle 29, Day 1): 12.0 (14.1) Percent Predicted TLC
- Change From Baseline in Percent Predicted Total Lung Capacity (TLC) (lung function; Cohort 3: 400 mg QD, Cycle 31, Day 1): 17.0 (—) Percent Predicted TLC
- Change From Baseline in Percent Predicted Total Lung Capacity (TLC) (lung function; Cohort 3: 400 mg QD, Cycle 35, Day 1): 13.0 (—) Percent Predicted TLC
- Change From Baseline in Percent Predicted Total Lung Capacity (TLC) (lung function; Cohort 3: 400 mg QD, Cycle 36, Day 1): −6.0 (—) Percent Predicted TLC
- Change From Baseline in Percent Predicted Total Lung Capacity (TLC) (lung function; Cohort 3: 400 mg QD, Cycle 49, Day 1): 1.0 (—) Percent Predicted TLC
- Change From Baseline in Percent Predicted Total Lung Capacity (TLC) (lung function; Cohort 3: 400 mg QD, EOT): −12.6 (20.1) Percent Predicted TLC
- Cmax, geometric mean (geometric CV) ([1]; Cycle 1 Day 1, Cohort 1, belumosudil 200 mg QD): 2500 nanograms per milliliter
- Cmax, geometric mean (geometric CV) ([1]; Cycle 1 Day 1, Cohort 2, belumosudil 200 mg BID): 1400 nanograms per milliliter
- Cmax, geometric mean (geometric CV) ([1]; Cycle 1 Day 1, Cohort 3, belumosudil 400 mg QD): 2960 nanograms per milliliter
- Cmax, geometric mean (geometric CV) ([1]; Cycle 2 Day 1, Cohort 1, belumosudil 200 mg QD): 2020 nanograms per milliliter
- Cmax, geometric mean (geometric CV) ([1]; Cycle 2 Day 1, Cohort 2, belumosudil 200 mg BID): 1890 nanograms per milliliter
- Cmax, geometric mean (geometric CV) ([1]; Cycle 2 Day 1, Cohort 3, belumosudil 400 mg QD): 3270 nanograms per milliliter
- AUC0-6 hr, Geometric Mean (Geometric Coefficient of Variation) ([1]; Belumosudil 200 mg BID, Cycle 1 Day 1): 4960 hours*nanograms per milliliter
- AUC0-6 hr, Geometric Mean (Geometric Coefficient of Variation) ([1]; Belumosudil 200 mg BID, Cycle 2 Day 1): 7190 hours*nanograms per milliliter
- AUC0-6 hr, Geometric Mean (Geometric Coefficient of Variation) ([1]; Belumosudil 200 mg QD, Cycle 1 Day 1): 8350 hours*nanograms per milliliter
- AUC0-6 hr, Geometric Mean (Geometric Coefficient of Variation) ([1]; Belumosudil 200 mg QD, Cycle 2 Day 1): 7090 hours*nanograms per milliliter
- AUC0-6 hr, Geometric Mean (Geometric Coefficient of Variation) ([1]; Belumosudil 400 mg QD, Cycle 1 Day 1): 11500 hours*nanograms per milliliter
- AUC0-6 hr, Geometric Mean (Geometric Coefficient of Variation) ([1]; Belumosudil 400 mg QD, Cycle 2 Day 1): 12000 hours*nanograms per milliliter
- effect of age and body weight on pharmacokinetics (population pharmacokinetic data) [2]: no clinically meaningful effect
- pharmacokinetic differences by age, sex, weight, mild to moderate renal impairment [2]: No clinically significant differences
